# Experimental data from publication PMC11189555, “Aryl amino acetamides prevent Plasmodium falciparum ring development via targeting the lipid-transfer protein PfSTART1” (Nature Communications, 2024).
# Read-outs that look alike come from different tables or passages of the source.
# Test system: 3D7 P. falciparum parasites
# Assay: Growth inhibition assay (72 h, LDH activity)
# Type: cell-based, Plasmodium falciparum
# Conditions: for inhibition / EC50: Plasmodium falciparum; for inhibition: 3D7, 3D7, read-out: NORMALISED (growth inhibition, LDH absorbance)
# Method: Parasite growth assays with inhibitory compounds were performed as per[11] and are fully described in the Supplementary Information. […]
# Growth inhibition assays. Synchronised ring-stage parasites (0.3-0.6% parasitemia, 2% haematocrit) were grown for 72 h in a serial-dilution of the compound under […]
# and compound 4. Note that M-833 was first purchased from MolPort (MolPort -002-267-916) then made in-house at WEHI: the differences observed in EC50s across experiments are attributed to the different batches of M -833. For some experiments, 0, 0.25 or 2.5 mM of glucosamine (GlcN) was also added. Experiments were set up in technical duplicates or triplicates. Following a freeze -thaw cycle, lactate dehydrogenase (LDH) activity was assessed as an indicator of parasite growt h 5. 30 μL of parasite culture was incubated for 30 min in the dark with 75 μL Malstat mixture (0.1 M Tris pH 9.0, 20 g/L lactic acid, pH 7.5, 0.2% Triton-X100, 0.5 g/L acetylpyridine adenine dinucleotide (APAD, Sigma), 200 μg/mL nitroblue tetrazolium (NBT; Sigma), 1 μg/mL phenozine ethosulfate (PES; Sigma)). Absorbance was then measured at 650 nm, transformed using the formula below, plotted against the logarithm of the concentrations, and a non-linear regression (log(inhibitor) vs. response, variable slope) was calculated using GraphPad Prism to assess the half-inhibitory […]
# Growth inhibition % = (1 − average(sample)− average(uRBC)) ∗ 100 […]
# The DMSO samples were also used to assess growth of parasite in the presence of 0.25 and 2.5 mM GlcN (normalised by DMSO in 0 mM GlcN). […]
compound,measurement,setting,value
CC(C)(Nc1ccc(Cl)c(S(=O)(=O)N2CCOCC2)c1)C(=O)Nc1ccc(F)c(Cl)c1 [W-991],(av-uRBC) / (DMSO-uRBC) x100,"3D7, conc. 2.05761 nM, Biological replicate 1 (2021-10-25)",12.3757
same,(av-uRBC) / (DMSO-uRBC) x100,"3D7, conc. 2.05761 nM, Biological replicate 2 (2021-11-03)",18.386
same,(av-uRBC) / (DMSO-uRBC) x100,"3D7, conc. 2.05761 nM, Biological replicate 3 (2021-11-11)",9.397
same,(av-uRBC) / (DMSO-uRBC) x100,"3D7, conc. 6.17284 nM, Biological replicate 1 (2021-10-25)",9.357
same,(av-uRBC) / (DMSO-uRBC) x100,"3D7, conc. 6.17284 nM, Biological replicate 2 (2021-11-03)",11.686
same,(av-uRBC) / (DMSO-uRBC) x100,"3D7, conc. 6.17284 nM, Biological replicate 3 (2021-11-11)",6.494
same,(av-uRBC) / (DMSO-uRBC) x100,"3D7, conc. 18.5185 nM, Biological replicate 1 (2021-10-25)",9.8
same,(av-uRBC) / (DMSO-uRBC) x100,"3D7, conc. 18.5185 nM, Biological replicate 2 (2021-11-03)",10.8954
same,(av-uRBC) / (DMSO-uRBC) x100,"3D7, conc. 18.5185 nM, Biological replicate 3 (2021-11-11)",6.2108
same,(av-uRBC) / (DMSO-uRBC) x100,"3D7, conc. 55.5556 nM, Biological replicate 1 (2021-10-25)",9.035
same,(av-uRBC) / (DMSO-uRBC) x100,"3D7, conc. 55.5556 nM, Biological replicate 2 (2021-11-03)",11.005
same,(av-uRBC) / (DMSO-uRBC) x100,"3D7, conc. 55.5556 nM, Biological replicate 3 (2021-11-11)",5.108
same,(av-uRBC) / (DMSO-uRBC) x100,"3D7, conc. 166.667 nM, Biological replicate 1 (2021-10-25)",9.2782
same,(av-uRBC) / (DMSO-uRBC) x100,"3D7, conc. 166.667 nM, Biological replicate 2 (2021-11-03)",9.854
same,(av-uRBC) / (DMSO-uRBC) x100,"3D7, conc. 166.667 nM, Biological replicate 3 (2021-11-11)",4.764
same,(av-uRBC) / (DMSO-uRBC) x100,"3D7, conc. 500 nM, Biological replicate 1 (2021-10-25)",10.7733
same,(av-uRBC) / (DMSO-uRBC) x100,"3D7, conc. 500 nM, Biological replicate 2 (2021-11-03)",10.7389
same,(av-uRBC) / (DMSO-uRBC) x100,"3D7, conc. 500 nM, Biological replicate 3 (2021-11-11)",3.985
same,improvement in parasite activity on replacing the aryl oxy of compound 3 with an amino group,EC50 based,20 fold
same,inhibition,"0.25 mM GlcN, dilution point 1 of 10, starting concentration 100 nM",94.1%
same,inhibition,"0.25 mM GlcN, dilution point 2 of 10 from starting concentration 100 nM",94.3%
same,inhibition,"0.25 mM GlcN, dilution point 3 of 10 from starting concentration 100 nM",95.3%
same,inhibition,"0.25 mM GlcN, dilution point 4 of 10 from starting concentration 100 nM",91.5%
same,inhibition,"2.5 mM GlcN, dilution point 1 of 10, starting concentration 100 nM",89.4%
same,inhibition,"2.5 mM GlcN, dilution point 2 of 10 from starting concentration 100 nM",91.3%
same,inhibition,"2.5 mM GlcN, dilution point 3 of 10 from starting concentration 100 nM",88.4%
same,inhibition,"2.5 mM GlcN, dilution point 4 of 10 from starting concentration 100 nM",86.4%
same,inhibition,"2.5 mM GlcN, dilution point 5 of 10 from starting concentration 100 nM",65.7%
same,inhibition,"2.5 mM GlcN, dilution point 6 of 10 from starting concentration 100 nM",40.2%
same,EC50,"3D7, 72 h, Supplementary Table 1, 3D7, 72 h, read-out: EC50",0.72 nM
same,EC50,"3D7, Fig 4C, 3D7, 0 mM GlcN, n = 3, read-out: EC50 W-991 (95% confidence interval)",0.942 nM
same,EC50,"3D7, Fig 4C, 3D7, 0.25 mM GlcN, n = 3, read-out: EC50 W-991 (95% confidence interval)",0.908 nM
same,EC50,"3D7, Fig 4C, 3D7, 2.5 mM GlcN, n = 3, read-out: EC50 W-991 (95% confidence interval)",0.787 nM
same,EC50,"3D7, text on structure activity relationship (Fig 4A), read-out: EC50, antiparasitic activity",7 nM
same,effect of GlcN addition on EC50,"control 3D7, Fig 4C",did not change the EC50
